In patent US10830770B2, “Cell death assay” (HQ MEDICAL (NETHERLANDS) B.V., priority 2012, dated 2020):

What follows are molecules tested on 4T1-luc2 mouse breast cancer cells (assay: dry-ice dead-cells-assay (in vitro model of cryo-induced cell death)). Settings: Trypan Blue 0.2% in culture medium, 15 min, FIG. 4A.
Assay type: cell-based
Procedure: The dead cell targeting properties of seven HQ medical compounds (HQ1-7) were assessed in a newly developed in vitro assay of living and dead 4T1-luc2 mouse breast cancer cells. For this 4T1-luc2 cells were cultured to confluence in 12-well plates and a local area of cell death was induced by applying a bar of dry ice to the bottom of the culture well. Subsequently, the cells were incubated with the test compounds, washed and imaged with the Lycor Odyssey.
4T1-Luc cells were seeded onto individual wells from a 12-well cell culture plate and allowed to grow to confluence in RPMI media supplemented with 10% fetal bovine serum. 4T1-luc2 mouse breast cancer cells were used as the adherence of these cells to the bottom of the culture well remains strong after dry-ice treatment. To initiate cryo-induced cell death, media was discarded and dry-ice was applied to the bottom center of each individual well for 15 sec. Subsequently, fresh medium with different concentrations of the HQ medical compounds (HQ1-7) were added and cells were incubated at 37° C. for 15 min. After incubation, the media were discarded and the cells were washed twice with serum free medium and 0.5 ml fresh RPMI was added to each well. Cells were then visualized using a Licor Odyssey equipped with 700 and 800 nm diode laser. Luciferin ([…]) was also added to each well and fluorescence and bioluminescence images were acquired using an IVIS Spectrum (fluorescence: excitation filter: 710 nm, emission filter: 820 nm, exposure time: 90 s, bin: 8, f/stop: 2, field of view: 12.9 cm) (bioluminescence: open filter, exposure time: 30 s, bin: 8, f/stop: 1, field of view: 12.9 cm). Some culture wells were also stained for 15 min with Trypan Blue (0.2% in culture medium) to confirm cell death.
Confluent cultures of 4T1-luc2 breast cancer cells were treated for 15 sec with a focal application of dry-ice to the bottom center of a culture well and were used to examine the dead cell binding properties of the seven HQ medical NIRF compounds. First, however, in order to confirm the presence of a local area of dead cells, the dry-ice treated cultures were incubated with Trypan blue or were treated with luciferin and measured for bioluminescence.
HQ medical #1-7 were examined for their imaging potential of dead cells in the present dry-ice dead-cells-assay. The cells were incubated with the HQ medical compounds with concentrations ranging from 0.5 to 0.001 uM. HQ medical #4-7, all specifically bound to dead cells (FIGS. 5A and B). […] For HQ medical #6 and 7, a signal from the dead cell area could be detected at least 50-fold higher concentrations.

Q: With `Cc1cc(-c2ccc(/N=N/c3c(S(=O)(=O)O)cc4cc(S(=O)(=O)O)cc(N)c4c3O)c(C)c2)ccc1/N=N/c1c(S(=O)(=O)O)cc2cc(S(=O)(=O)O)cc(N)c2c1O` [Trypan Blue] as the molecule, how does the “uptake of Trypan Blue at site of focal dry-ice treatment compared to viable cells in the periphery” value read?
A: Its value is “increased uptake”.

Same assay, conditions: dead vs living cells

Q: With `CC1(C)C(/C=C/C2=C(Oc3ccc(S(=O)(=O)O)cc3)C(=C/C=C3/N(CCCCS(=O)(=O)O)c4ccc(S(=O)(=O)[O-])cc4C3(C)C)/CCC2)=[N+](CCCCCC(=O)O)c2ccc(S(=O)(=O)O)cc21` [CW 800] as the molecule, how does the “binding to dead cells” value read?
A: Its value is “specific binding to dead cells”.

Q: For `CCN1C(=CC=CC2=[N+](CCCCCC(=O)O)c3ccc(S(=O)(=O)O)cc3C2(C)C)C(C)(C)c2cc(S(=O)(=O)[O-])ccc21` [CY3], which “binding to dead cells” value is on record?
A: Its value is “specific binding to dead cells”.

Q: `CCN1/C(=C/C=C/C=C/C2=[N+](CCCCCC(=O)O)c3ccc(S(=O)(=O)O)cc3C2(C)C)C(C)(C)c2cc(S(=O)(=O)[O-])ccc21` [CY5] was tested. Which “binding to dead cells” value did it give?
A: The value was “specific binding to dead cells”.

Q: For `CCN1C(=CC=CC=CC=CC2=[N+](CCCCCC(=O)O)c3ccc(S(=O)(=O)O)cc3C2(C)C)C(C)(C)c2cc(S(=O)(=O)[O-])ccc21` [CY7], which “binding to dead cells” value is on record?
A: Its value is “specific binding to dead cells”.

Q: With `CCN1c2cc3c(cc2C(C)=CC1(C)C)C(=CC=CC1=[N+](CCCS(=O)(=O)[O-])c2ccc(S(=O)(=O)[O-])cc2C1(C)CCCC(=O)O)C=C(c1ccccc1)O3.[Na+]` (stereo not drawn) [DY-676] as the molecule, how does the “binding to dead cells” value read?
A: The value was “specific binding to dead cells”.

Q: `CC[N+](CC)=c1ccc2c(C(C)(C)C)cc(/C=C/C=C3/N(CCCS(=O)(=O)[O-])c4ccc(S(=O)(=O)[O-])cc4C3(C)CCCC(=O)O)oc-2c1.[Na+]` (stereo not drawn) [DY-681] was tested. Which “binding to dead cells” value did it give?
A: Its value is “specific binding to dead cells”.

Q: Which “binding to dead cells” value does the source give for `CC[N+](CC)=c1ccc2c(/C=C/C=C/C=C3/N(CCCS(=O)(=O)[O-])c4ccc(S(=O)(=O)[O-])cc4C3(C)CCCC(=O)O)cc(C(C)(C)C)oc-2c1.[Na+]` (stereo not drawn) [DY-731] here?
A: The value was “specific binding to dead cells”.

Q: `CCN1c2cc3c(cc2C(C)=CC1(C)C)/C(=C/C=C/C=C/C1=[N+](CCCS(=O)(=O)[O-])c2ccc(S(=O)(=O)[O-])cc2C1(C)CCCC(=O)O)C=C(c1ccccc1)O3.[Na+]` (stereo not drawn) [DY-776] was tested. Which “binding to dead cells” value did it give?
A: The value was “specific binding to dead cells”.

Q: `CC1(C)C(/C=C/C=C/C=C/C=C2\N(CCCCS(=O)(=O)[O-])c3ccc4ccccc4c3C2(C)C)=[N+](CCCCS(=O)(=O)[O-])c2ccc3ccccc3c21.[Na+]` [ICG] was tested. Which “binding to dead cells” value did it give?
A: Its value is “specific binding to dead cells”.

Q: `CC1(C)C(=CC=C2CCCC(C=CC3=[N+](CCC[N+](C)(C)C)c4ccc(S(=O)(=O)O)cc4C3(C)C)=C2Oc2ccc(CCC(=O)O)cc2)N(CCC[N+](C)(C)C)c2ccc(S(=O)(=O)O)cc21` [ZW800] was tested. Which “binding to dead cells” value did it give?
A: The value was “specific binding to dead cells”.

Q: Which “binding to dead cells” value does the source give for CY5.5 here?
A: The value was “specific binding to dead cells”.
